Results taken from paper PMC6378217, “The lysyl oxidase like 2/3 enzymatic inhibitor, PXS‐5153A, reduces crosslinks and ameliorates fibrosis” (Journal of Cellular and Molecular Medicine, 2018).

Legend:
Phorbol Ester = experiment: Eurofins Hit Profiling Screen; format: binding; conditions: 10 μmol/L
Myocardial infarction = Myocardial infarction (left coronary artery occlusion); format: in vivo, C57/BL6 mice; conditions: 25 mg/kg q.d., p.o., 4 weeks; compared to infarcted untreated animals
Procedure: The study was performed by CL Laboratory (Baltimore, USA) with approval from the Institutional Animal Care and Use Committee. Myocardial infarction (MI) was induced in C57/BL6 mice by occluding the left coronary artery. The same surgery but without occluding the left coronary artery was used as a sham control. At 24 hours post‐surgery, animals received echocardiography. Infarcted mice with high cardiac function (FS > 40%) or low cardiac function (FS < 10%) were excluded from the study. The remaining mice were treated q.d., p.o., with 25 mg/kg of PXS‐5153A for 4 weeks. At the end of the experiment, echocardiography was performed on mice to assess left ventricular function and remodelling, followed by heart collection. The heart was fixed with 10% formalin. Fibrosis was assessed in the non‐infarct area. Fibrotic blue area and whole non‐infarct area were measured using computerized planimetry (Image J). The fibrotic area was presented as a percentage of the whole non‐infarct area. Three random fields per heart were counted, averaged and a total of 30‐45 fields per group were measured.

Dopamine D2S = Dopamine D2S (Homo sapiens, UniProt P14416); experiment: Eurofins Hit Profiling Screen; format: binding; conditions: 10 μmol/L
[1] = tested on: NASH-induced liver disease; experiment: NASH-induced liver disease (streptozotocin/high fat diet, STAM); format: in vivo, C57/BL6 mice
Procedure: Pellet then underwent acid hydrolysis in 6 mol/L HCl at 100°C for 24 hours. Hydroxyproline and crosslinks were extracted from the hydrolysate using an automated solid phase extraction system (Gilson […] system). After extraction and drying, hydroxyproline and crosslinks were analysed by UHPLC-ESI-MS/MS on a Thermo Dionex UHPLC and TSQ Endura triple quad mass spectrometer. Total protein was quantified in the samples using a commercially available kit (QuickZyme Biosciences, Leiden, The Netherlands). For detailed procedures, see supporting information. The study was performed by Stelic MC, Inc. (Tokyo, Japan) with approval from local ethics committee. NASH was established in male C57/BL6 mice by a single subcutaneous injection of 200 μg streptozotocin (Sigma-Aldrich) after birth and with a high fat diet (CLEA Japan) ad libitum after 4 weeks of age (day 28 ± 2) until 14 weeks of age. Mice were orally administered with 10 mg/kg PXS-5153A once daily from 8 to 14 weeks of age. ALT levels were assessed in the plasma. One lobe of the liver tissue was fixed in 10% formalin, stained for Sirius red and the percentage coverage area was measured; HE staining was performed to estimate non-alcoholic fatty liver disease (NAFLD) activity score according to the criteria of Kleiner et al28 The remainder of the liver was snap frozen and used for protein, hydroxyproline and crosslink analysis.

Adrenergic β1 = Adrenergic β1 (Homo sapiens, UniProt P08588); experiment: Eurofins Hit Profiling Screen; format: binding; conditions: 10 μmol/L
Recombinant mouse LOXL2 = biological target: T1, Recombinant mouse LOXL2 (Mus musculus, UniProt P58022); experiment: Amplex-Red fluorometric enzymatic activity assay, recombinant mouse LOXL2; format: biochemical; conditions: 30 minute pre-incubation; average of at least three experiments
T1 construct: purchased R&D Systems
Procedure: The measurement of the enzymatic activity of all lysyl oxidase family members was based on the detection of hydrogen peroxide with an Amplex‐Red oxidation assay, as described in Zhou et al26 Recombinant human semicarbazide sensitive amine oxidase (SSAO/VAP1), diamine oxidase (DAO) and monoamine oxidases A and B (MAO‐A and MAO‐B) assays were performed as previously described.27 For detailed enzymatic procedures, see supporting information.
The measurement of the enzymatic activity of all lysyl oxidase family members was based on the detection of hydrogen peroxide with an Amplex-Red oxidation assay, as described in Zhou et al.[1]; miniaturised in 384 well format, with the appropriate combination of substrate and assay buffer for each individual enzyme. After a 30 minute pre-incubation of the enzyme at 37 °C with the test compound (or with different incubation times for the time-dependency assay), one volume of reaction mixture containing 120 μM Amplex Red (AR) (Life Technologies), 1.5 U/mL horseradish peroxidase (HRP) (Sigma-Aldrich) and the specific substrate was added to each sample. The relative fluorescence units (RFU) were then measured every 2.5 minutes for 30 minutes at 37°C, excitation 565 nm and emission 590, on a BMG Clariostar Microplate Reader. […]

Cannabinoid CB1 = Cannabinoid CB1 (Homo sapiens, UniProt P21554); experiment: Eurofins Hit Profiling Screen; format: binding; conditions: 10 μmol/L
Imidazoline I2, Central = experiment: Eurofins Hit Profiling Screen; format: binding; conditions: 10 μmol/L

T1 sequence (P58022 26-776): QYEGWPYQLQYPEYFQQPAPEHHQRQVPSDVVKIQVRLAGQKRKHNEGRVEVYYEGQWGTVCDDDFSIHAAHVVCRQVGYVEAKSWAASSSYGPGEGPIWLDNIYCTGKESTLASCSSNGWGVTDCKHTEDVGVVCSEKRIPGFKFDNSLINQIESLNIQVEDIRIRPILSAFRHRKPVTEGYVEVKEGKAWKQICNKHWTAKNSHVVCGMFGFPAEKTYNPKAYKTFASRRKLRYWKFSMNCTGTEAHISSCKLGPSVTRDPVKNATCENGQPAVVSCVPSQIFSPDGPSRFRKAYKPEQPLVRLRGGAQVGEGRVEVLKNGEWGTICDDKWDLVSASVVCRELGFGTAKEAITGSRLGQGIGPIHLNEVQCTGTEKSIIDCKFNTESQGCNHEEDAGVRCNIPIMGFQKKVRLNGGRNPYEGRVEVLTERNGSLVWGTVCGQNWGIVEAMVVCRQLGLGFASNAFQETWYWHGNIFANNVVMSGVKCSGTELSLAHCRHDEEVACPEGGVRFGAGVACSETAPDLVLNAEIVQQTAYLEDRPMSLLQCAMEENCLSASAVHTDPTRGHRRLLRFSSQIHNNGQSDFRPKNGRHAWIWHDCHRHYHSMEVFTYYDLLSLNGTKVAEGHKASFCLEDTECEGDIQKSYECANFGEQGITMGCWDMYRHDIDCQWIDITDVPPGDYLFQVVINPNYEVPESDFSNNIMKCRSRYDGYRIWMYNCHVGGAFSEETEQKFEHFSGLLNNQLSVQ
Sequence of Cannabinoid CB1 (P21554 whole entry): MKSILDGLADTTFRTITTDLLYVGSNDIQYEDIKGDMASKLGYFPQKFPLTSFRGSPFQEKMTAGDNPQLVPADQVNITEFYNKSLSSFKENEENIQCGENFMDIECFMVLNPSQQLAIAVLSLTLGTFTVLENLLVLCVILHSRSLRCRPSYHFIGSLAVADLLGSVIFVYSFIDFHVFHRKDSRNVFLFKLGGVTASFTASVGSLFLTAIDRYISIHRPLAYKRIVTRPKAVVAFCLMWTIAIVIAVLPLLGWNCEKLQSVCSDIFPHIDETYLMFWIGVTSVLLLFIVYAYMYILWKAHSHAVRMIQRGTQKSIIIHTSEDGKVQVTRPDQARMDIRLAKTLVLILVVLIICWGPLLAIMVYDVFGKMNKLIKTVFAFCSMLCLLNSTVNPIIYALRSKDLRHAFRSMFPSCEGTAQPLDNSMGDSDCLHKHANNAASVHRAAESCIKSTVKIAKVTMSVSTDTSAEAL
Sequence of Adrenergic β1 (P08588 whole entry): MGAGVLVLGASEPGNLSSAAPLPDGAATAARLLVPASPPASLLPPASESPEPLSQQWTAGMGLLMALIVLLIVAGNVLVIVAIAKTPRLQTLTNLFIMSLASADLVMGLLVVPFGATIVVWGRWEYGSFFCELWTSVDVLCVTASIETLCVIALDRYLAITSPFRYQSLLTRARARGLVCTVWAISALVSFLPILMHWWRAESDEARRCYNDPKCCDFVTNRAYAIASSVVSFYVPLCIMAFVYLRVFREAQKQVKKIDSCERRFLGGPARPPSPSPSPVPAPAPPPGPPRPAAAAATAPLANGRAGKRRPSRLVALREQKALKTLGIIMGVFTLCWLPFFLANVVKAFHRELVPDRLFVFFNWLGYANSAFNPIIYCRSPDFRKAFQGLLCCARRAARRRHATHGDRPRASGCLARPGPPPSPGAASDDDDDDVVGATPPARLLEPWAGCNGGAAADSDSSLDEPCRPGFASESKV
Sequence of Dopamine D2S (P14416 1-414 isoform P14416-2): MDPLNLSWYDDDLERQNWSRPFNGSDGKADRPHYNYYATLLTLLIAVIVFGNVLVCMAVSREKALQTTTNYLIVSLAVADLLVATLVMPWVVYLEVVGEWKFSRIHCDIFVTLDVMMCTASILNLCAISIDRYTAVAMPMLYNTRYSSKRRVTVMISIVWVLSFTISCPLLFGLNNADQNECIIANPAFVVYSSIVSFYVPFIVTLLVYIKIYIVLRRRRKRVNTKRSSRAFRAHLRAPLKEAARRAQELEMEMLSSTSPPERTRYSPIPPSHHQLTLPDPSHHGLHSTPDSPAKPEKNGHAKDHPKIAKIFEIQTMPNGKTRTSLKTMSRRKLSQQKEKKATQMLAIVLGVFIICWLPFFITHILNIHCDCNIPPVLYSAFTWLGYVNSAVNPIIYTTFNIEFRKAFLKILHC

Cc1c(-c2cccc(S(=O)(=O)N(C)C)c2)c2ncccc2n1C/C(F)=C/CN.Cl.Cl [PXS-5153A]
% inhibition (Phorbol Ester): 2% | ejection fraction (Myocardial infarction): improvement | fractional shortening (Myocardial infarction): improvement | percentage fibrotic coverage area (Myocardial infarction): decrease | % inhibition (Dopamine D2S): 10% | DHLNL ([1]; 10 mg/kg orally once daily): significantly reduced | NASH disease score (NAFLD activity score) ([1]; 10 mg/kg orally once daily): reduction | PYD ([1]; 10 mg/kg orally once daily): significantly reduced | hepatocyte ballooning ([1]; 10 mg/kg orally once daily): significantly reduced | percentage coverage area by Picrosirius red staining ([1]; 10 mg/kg orally once daily): reduced | HYP ([1]; 10 mg/kg orally once daily from 8 to 14 weeks of age): significantly reduction | % inhibition (Adrenergic β1): 3% | IC50 (Recombinant mouse LOXL2): 21 nM | pIC50 ± SD (Recombinant mouse LOXL2): 7.7 ± 0.2 | % inhibition (Cannabinoid CB1): 17% | % inhibition (Imidazoline I2, Central): 57%
